The species named for one assay is Homo sapiens. The assay can be described thus: Cellular assay in an inflammation model measuring IL1-beta secretion from isolated human monocytes induced with Staph A. Format: functional.
The target of the next assay is T1, Caspase-1 (Mus musculus, UniProt P29452).
T1 sequence (P29452 whole entry): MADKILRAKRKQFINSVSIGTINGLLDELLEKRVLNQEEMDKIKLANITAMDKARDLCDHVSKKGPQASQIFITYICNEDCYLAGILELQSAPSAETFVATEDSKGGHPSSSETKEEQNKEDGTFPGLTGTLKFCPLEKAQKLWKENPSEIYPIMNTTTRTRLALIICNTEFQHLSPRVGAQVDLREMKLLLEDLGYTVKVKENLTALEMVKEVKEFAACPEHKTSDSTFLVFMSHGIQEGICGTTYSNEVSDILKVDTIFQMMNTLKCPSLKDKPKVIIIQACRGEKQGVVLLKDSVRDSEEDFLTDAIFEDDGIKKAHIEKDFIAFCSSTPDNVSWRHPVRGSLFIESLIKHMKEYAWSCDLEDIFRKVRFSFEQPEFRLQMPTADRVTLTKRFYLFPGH
The assay can be described thus: Binding affinity against Murine caspase-1 (mCsp-1).

The target in the next assay is T2, Caspase-3 (Homo sapiens) (UniProt P42574).
T2 sequence (whole entry): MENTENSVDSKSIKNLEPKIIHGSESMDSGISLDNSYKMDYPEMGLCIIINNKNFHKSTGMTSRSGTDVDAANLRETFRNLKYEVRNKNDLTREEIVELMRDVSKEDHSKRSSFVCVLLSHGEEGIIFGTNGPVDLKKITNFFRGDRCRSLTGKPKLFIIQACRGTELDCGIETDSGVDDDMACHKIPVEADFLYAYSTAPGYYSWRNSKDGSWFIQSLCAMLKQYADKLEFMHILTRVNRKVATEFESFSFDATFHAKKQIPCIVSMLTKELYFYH
The assay is described as follows: Inhibitory activity against caspase-3 (Csp-3).

Assay [1] in a line: (§1) Cellular assay in a model of neuronal apoptosis involving cortical neurons exposed to concanavalin A. Format: functional.
For the next assay, the target named is T3, Caspase-3 (Homo sapiens, UniProt P42574).
T3 sequence (P42574 whole entry): T2 sequence (whole entry)
The assay is described as follows: Binding affinity against caspase-3 (Csp-3).

Another assay has as its target Caspase-8 (Homo sapiens) (UniProt Q14790). The assay is described as follows: Inhibitory activity against caspase-8 (Csp-8).
A further assay deals with T4, Caspase-1 (Mus musculus) (UniProt P29452).
T4 sequence (whole entry): T1 sequence (P29452 whole entry)
The assay can be described thus: Inhibitory activity against murine caspase-1.

A further assay deals with Jurkat. The assay can be described thus: Cellular assay in a Fas-induced model of apoptosis in Jurkat cells. The note with it: Homo sapiens. In kind it is functional, cell-based.
Assay [2] deals with T5, Caspase-6 (Homo sapiens) (UniProt P55212).
T5 sequence (whole entry): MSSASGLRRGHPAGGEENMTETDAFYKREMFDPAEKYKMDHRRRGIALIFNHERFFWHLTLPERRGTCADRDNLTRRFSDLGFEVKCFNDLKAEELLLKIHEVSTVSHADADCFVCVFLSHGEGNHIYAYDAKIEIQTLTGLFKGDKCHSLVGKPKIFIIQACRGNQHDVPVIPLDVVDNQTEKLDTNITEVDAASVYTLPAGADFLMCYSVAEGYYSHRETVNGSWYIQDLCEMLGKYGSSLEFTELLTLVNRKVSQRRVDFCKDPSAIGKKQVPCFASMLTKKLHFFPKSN
The assay can be described thus: Inhibitory activity against caspase-6 (Csp-6).

The nature of assay [3]: as §1. In kind it is functional. This is another data set of the same source.
Assay [4] has as its target T5, Caspase-6 (Homo sapiens). The assay can be described thus: Inhibitory activity against Caspase-6 (Csp-6). Format: functional.

SMILES strings stand for the structures.

Sequence of Caspase-8 (Homo sapiens) (Q14790 217-374 limits assumed): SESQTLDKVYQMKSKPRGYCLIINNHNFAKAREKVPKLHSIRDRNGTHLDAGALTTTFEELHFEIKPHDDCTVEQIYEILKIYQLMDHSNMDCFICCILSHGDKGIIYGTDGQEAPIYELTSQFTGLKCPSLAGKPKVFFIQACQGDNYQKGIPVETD
Sequence of Caspase-8 (Homo sapiens) (Q14790 385-479 limits assumed): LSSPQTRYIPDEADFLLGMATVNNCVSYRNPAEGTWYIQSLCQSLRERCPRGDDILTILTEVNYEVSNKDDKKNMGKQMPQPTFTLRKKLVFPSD

In the case of `CC(C)[C@H](NC(=O)COc1cccc2ccccc12)C(=O)N[C@@H](CC(=O)O)C(=O)COc1ccc(-c2ccccc2)cc1`, the results for the IC50 (in the assay listed under Homo sapiens; in [1]; with Jurkat) were 38.7 µM, over 50 µM and 87.9 µM, respectively. In addition, the Ki is 2.68 µM at Caspase-1 and 0.1 µM at Caspase-3. The k3/Ki amounted to 9990 M⁻¹ s⁻¹ on Caspase-3 (Homo sapiens), 1310 M⁻¹ s⁻¹ on Caspase-8 (Homo sapiens), 1550 M⁻¹ s⁻¹ at Caspase-1 (Mus musculus) and 270 M⁻¹ s⁻¹ at Caspase-6 (Homo sapiens) [2].
Take `CC(C)[C@H](NC(=O)COc1cccc2ccccc12)C(=O)N[C@@H](CC(=O)O)C(=O)COc1ccccc1`: the figures for the IC50 (in assay [3]; in the assay listed under Homo sapiens; in the assay with Jurkat) were 38 µM, 11.2 µM and 14 µM, respectively. The k3/Ki is 19200 M⁻¹ s⁻¹ at Caspase-3 (Homo sapiens), 4260 M⁻¹ s⁻¹ on Caspase-8 (Homo sapiens), 3630 M⁻¹ s⁻¹ on Caspase-1 (Mus musculus) and 2400 M⁻¹ s⁻¹ on Caspase-6 (Homo sapiens) [2].
Take `CC(C)[C@H](NC(=O)COc1cccc2ccccc12)C(=O)N[C@@H](CC(=O)O)C(=O)CF`: the values for the IC50 (in the assay filed under Homo sapiens; in assay [1]; in the assay on Jurkat) were 0.95 µM, 3.05 µM and 0.24 µM, respectively. The k3/Ki turned out to be 207000 M⁻¹ s⁻¹ on Caspase-3 (Homo sapiens), 71700 M⁻¹ s⁻¹ at Caspase-8 (Homo sapiens), 36800 M⁻¹ s⁻¹ on Caspase-6 (Homo sapiens) [4] and 129000 M⁻¹ s⁻¹ on Caspase-1 (Mus musculus).

For orientation: IC50 means the midpoint of a concentration-inhibition curve. For orientation: Ki means a dissociation constant, usually derived from enzyme kinetics or from competition with a known ligand. Low readings indicate higher affinity, high ones lower affinity.

The record behind these values is ChEMBL document CHEMBL1136305, “Structure-activity relationships within a series of caspase inhibitors: effect of leaving group modifications” (Bioorg Med Chem Lett, 2003).
